Results published in patent publication US5455226A, “EGF-containing pharmaceutical composition for the treatment of bronchopulmonary pathologies” (Synthelabo, priority 1991, dated 1995).
Where “and” joins values, the source holds several entries; their conditions need not be identical. Equal entries are not always repeated.

Assays:
[1] = test system: human respiratory epithelial cells in culture; assay: In vitro model of respiratory epithelium wound repair (30 to 50 cells detached by micromanipulator); format: cell-based; conditions: EGF 10 ng/ml
Protocol: (§1) The study of the repair of wounds of the respiratory epithelium was performed on an in vitro model. Thirty to 50 cells are detached from the culture by means of a micromanipulator so as to expose the collagen matrix on which the epithelial cells proliferate. The repair of this injured region is monitored as a function of time on cultures in the presence of EGF (10 ng/ml) or in the absence of EGF. For the technique of culture of dissociated cells in a collagen lattice, the effect of EGF on the retraction of the collagen lattice was studied after 8 days of culture. This retraction is quantified by measuring the area of the collagen lattice.

[2] = test system: surface epithelial cells dissociated from nasal polyp; assay: In vitro model of lesion of the respiratory epithelium: repair index; format: cell-based, human; conditions: for repair index: 10 ng/ml
Protocol: Surface epithelial cells dissociated from nasal polyp are cultured on a collagen I matrix in RPMI culture medium supplemented with hydrocortisone,retinoic acid, insulin and EGF (epidermal growth factor). After about 3 days of culture, when the cells have become confluent, the supplemented culture medium is replaced with unsupplemented RPMI medium. After incubating for 12 hours in the presence of unsupplemented medium, the culture is placed on the stage of an inverted microscope equipped with a micromanipulator. A microcapillary, guided by the micromanipulator, makes it possible to detach cells, thus creating a wound with a surface area of about 100,000 μm^2. The unsupplemented culture medium is then replaced with culture medium containing only EGF at different concentrations. Video recordings of the injured culture are then made every hour. Using these video recordings, an image analyser makes it possible to monitor the variation of the surface area of the wound as a function of time. A regression line between the surface area of the wound (expressed in μm^2) and the time (expressed in hours) makes it possible to calculate the slope of the regression line obtained, a slope which corresponds to the decrease in the surface area of the wound per unit of time. The latter parameter corresponds to the repair index (the higher the index, the faster the repair).
Eight nasal polyps were used to culture respiratory epithelial cells (5 culture dishes per polyp). In each of these dishes, the injured cultures are incubated either in the presence of unsupplemented culture medium, or in the presence of culture medium supplemented with EGF at various concentrations (5, 10, 20 or 50 ng/ml). From the variation of the surface area as a function of time (the repair index corresponds to the slope of the regression line between the surface area of the wound and time), we calculated the repair index. This index is then expressed relative to the repair index obtained with the EGF-free culture medium used as control. The results obtained show a systematic increase in the repair index for wounds in the presence of EGF. At a concentration of 5 and 10 ng/ml, EGF stimulates the repair by 38% and 36% respectively. At the concentration of 20 ng/ml, the stimulation is 49%.
This study was carried out under the same experimental conditions as above. The repair index for the wounds was quantified in the presence of unsupplemented culture medium and in the presence of culture medium supplemented either with EGF of mouse submaxillary gland (m-EGF: 10 ng/ml), or with recombinant human EGF (h-EGF: 10 ng/ml).

[3] = test system: human respiratory epithelial cells (from nasal polyps); assay: Dissociated respiratory epithelial cells cultured in a collagen lattice: cell number and morphology; format: cell-based
Protocol: (§2) Cultures of respiratory epithelial cells are obtained from nasal polyps by the technique of explants (growth of cells around the explant) and by the technique of dissociated cells cultured in a three-dimensional collagen matrix (collagen lattice).
(§3) The explants are cultured in the presence of varying concentrations (0, 5, 10 and 20 ng/ml) of EGF (EGF from mouse submaxillary glands, ref. E 4127, Sigma). The growth area around the explants is quantified after 3 and 4 days of culture. The percentage of growth area covered with ciliated cells as well as the ciliary beat frequency were measured after 3 days of culture. For the collagen lattice culture technique, the number of cells in culture was quantified up to 11 days after of culture, and this in the absence and in the presence of EGF (10 ng/ml).

[4] = test system: human respiratory epithelial cells (from nasal polyps); assay: Explant culture of respiratory epithelial cells: growth area around explants; format: cell-based; conditions: increasing EGF concentration up to 20 ng/ml; p<0.05
Protocol: as §2, §3

[5] = test system: ciliated cells of human respiratory epithelium; assay: Functional activity of ciliated cells in explant culture; format: cell-based; conditions: 20 ng/ml of EGF, after 3 days of culture
Protocol: as §2, §3

[6] = test system: superficial respiratory epithelial cells; assay: Retraction of the collagen lattice by respiratory epithelial cells; format: cell-based, human; conditions: after 8 days of culture in the presence of EGF
Protocol: as §1

Row | Substance | slope of the regression line (wound repair) [1] | repair index [2] [μm^2 /h] | stimulation of the repair (repair index relative to EGF-free control) ([2]; EGF 5 ng/ml) [%] | stimulation of the repair (repair index relative to EGF-free control) ([2]; EGF 10 ng/ml) [%] | stimulation of the repair (repair index relative to EGF-free control) ([2]; EGF 20 ng/ml) | repair index compared with the index obtained with 20 ng/ml of EGF ([2]; EGF 50 ng/ml, p<0.05) | number of cells ([3]; after 8 days of culture, in the presence of EGF vs without) | rate of cell proliferation ([3]; collagen lattice, EGF 10 ng/ml, compared with cultures without EGF) | formation of three-dimensional structures ([3]; collagen lattice, EGF in the culture medium) | growth area around the explants [4] | ciliary beat frequency [5] [Hz] | percentage of the growth surface covered with ciliated cells [5] [%] | collagen lattice area [6] [mm^2]
1 | EGF: Epidermal Growth Factor polypeptide from mouse submaxillary glands, ref. E 4127, Sigma | -71.8 | 11215 | 38 | 36 | 49% and ~50% | significantly (p<0.05) reduced | twice as high | higher | promotes the formation of tubular type three-dimensional structures | substantial increase in the growth area | 14.5 | 43 | 660
2 | h-EGF: recombinant human EGF (Sigma, Ref. E-3264) | – | 11492 | – | – | – | – | – | – | – | – | – | – | –
